These results are taken from patent US20150231238A1, “OVERCOMING RESISTANCE TO ERBB PATHWAY INHIBITORS” (MERRIMACK PHARMACEUTICALS, INC., priority 2011, published 2015).

One test relates to BT474-M3 cells. As to the kind of experiment: In vitro breast cancer model, viable cell count after 6 days. Format: cell-based.
For test [1], the system named is pAKT in heregulin-stimulated BT474-M3 cells. As to the kind of experiment: Inhibition of AKT phosphorylation in heregulin-stimulated cells. Particulars: dose range. Format: cell-based.
Test [2] deals with ErbB3, Akt and ERK1/2 signaling in BT474-M3-GFP-HRG tumors. The test can be described thus: Target and downstream signaling in BT474-M3-GFP-HRG tumor lysates (Luminex, western blot). Format: in vivo, mice. Particulars: for activity in reducing pErbB3 levels with tumoral HRG expression: versus BT474-M3-GFP; for ratio of pERK and totERK levels / ratio of pErbB3 to total ErbB3 / ratio of phospho-Akt to total Akt: in the presence of HRG. How it is done: (§1) At the end of study (21 or 25 days after initiation of treatment for BT474-M3-GFP-HRG and BT474-M3-GFP, respectively) tumor samples were collected (24 h after the last MM-111 and 6 h after the last lapatinib dose) and analyzed for target and downstream signaling inhibition. Total and phosphorylated ErbB3 and Akt protein levels were analyzed from tumor lysates by suspension array technology (Luminex) and total and phosphorylated Erk1/2 levels by western blot using PCNA to normalize the results.
(In general: In western blotting, separated proteins are transferred to a membrane and probed.)

The next test concerns BT474-M3-GFP-HRG tumors. The test can be described thus: BT474-M3-GFP-HRG tumor xenograft growth. The test is classed as in vivo, mice. Particulars: Example 10; MM-111 48 mpk q3d i.p., tamoxifen 5 mg; versus BT474-M3-GFP.
The test system of another test is NCI-N87 tumors. Particulars: paclitaxel 20 mpk q7d, trastuzumab 3.5 mpk q3d, MM-111 48 mpk q3d.
The next test relates to A2780cis cells. As to the kind of experiment: Cell Titer Glo cell viability after cisplatin, resistant versus sensitive line. Format: cell-based, human. Particulars: cisplatin 0.01 to 10 μM, 72 hours. As to the method:
The A2780 human ovarian cancer cell line was originally established from tumor tissue from an untreated patient. The A2780cis cell line is cisplatin-resistant (Cat. #93112517, Sigma). […] A2780cis is cross-resistant to melphalan, adriamycin and irradiation.
Cell viability is measured using the Cell Titer Glo assay (Cat. # G7570, Promega) according to the manufacturer's instructions.
Cell viability was measured by the Cell Titer Glo assay which measures metabolically active cells by quantitating ATP.
On the technique in general: In ATP-based viability assays light output follows the ATP content of the culture.

The subject of another test is pAKT in A2780 cells. The test can be described thus: pAKT (ser473) western blot in cisplatin-sensitive cells. Format: cell-based, human. Particulars: cisplatin 0.1 to 10 μM, especially after 24 hours and/or 10 μM. As to the method:
(§2) After incubation cell lysates are prepared and analyzed for pAKT (ser473) (Cat #9271 Cell Signaling Technologies) by western blot.
(§3) The effect of MM-121 on the AKT pathway is determined by treating sensitive (A2780) and resistant (A2780cis) cells with a dose range of MM-121 ((0.01 to 1 μM) in vitro for 1, 4, 24 or 72 hours. After incubation cell lysates are prepared and analyzed for pAKT (ser473) (Cat. #9271 Cell Signaling Technologies) by western blot.
(§4) Cell lysates are analyzed by western blot for pAKT.

The next test concerns pAKT in A2780cis cells. As to the kind of experiment: pAKT (ser473) western blot in cisplatin-resistant cells. The test is classed as cell-based, human. Particulars: cisplatin 0.1 to 10 μM or MM-121 0.01 to 1 μM, 1, 4, 24 or 72 hours. As to the method: as §2, §3, §4
Test [3] concerns BT474-M3 breast cancer xenograft. As to the kind of experiment: BT474-M3 breast cancer xenograft model. The test is classed as in vivo, mice. Particulars: MM-111 3 mg/kg every 3 days, trastuzumab 1 mg/kg weekly. As to the method: BT474-M3 cells (2×10^7 cells per mice) are inoculated subcutaneously into Nu/Nu immunodeficient mice, which are implanted with an estrogen pellet (0.72 mg; 60-day release) one day before the experiment. […] Tumors are measured twice a week and the experiment is ended at day 40.

Test [4] has as its system BT474-M3 parental (wild-type) cells. As to the kind of experiment: Cell proliferation assay (WST-1), parental cells. The test is classed as cell-based. Particulars: series dilution, five days. How it is done:
(§5) After five days of treatment, cell viability is measured by WST-1 (Roche, Cat. #5015944001) according to manufacturer's instructions. Cells treated with control (RPMI1640 with 10% FBS) are set as 100%, other treatments are expressed as percentage of the control.
On the technique in general: Tetrazolium dyes change colour on reduction, which living cells bring about.

The subject of test [5] is trastuzumab-resistant BT474-M3 cells. As to the kind of experiment: Cell proliferation assay (WST-1), trastuzumab-resistant cells. Particulars: series dilution, five days. Format: cell-based. How it is done: as §5
The test system of test [6] is BT474-M3 wild type cell spheroids. The test can be described thus: Spheroid assay, parental cells. Particulars: series dilution, six days. Format: cell-based. How it is done:
(§6) Cells are cultured for six days. Spheroids are then examined by Nikon microscope and analyzed by MetaMorph® Image Analysis Software (Molecular Devices). The spheroid size from cells cultured in medium containing 10% FBS is set as a control.

Test [7] relates to trastuzumab-resistant BT474-M3 cell spheroids. As to the kind of experiment: Spheroid assay, trastuzumab-resistant cells. The test is classed as cell-based. How it is done: as §6
The subject of test [8] is ErbB3, Akt and ERK1/2 signaling in BT474-M3-GFP tumors. The test can be described thus: Target and downstream signaling in BT474-M3-GFP tumor lysates (Luminex, western blot). Format: in vivo, mice. Particulars: end of study tumor lysates. How it is done: as §1
For test [9], the system named is heregulin-induced phosphorylation of ErbB3, AKT and ERK in ACHN, Du145 and OvCAR8 cells. As to the kind of experiment: ELISA of heregulin-induced pErbB3, pAKT and pERK in cell lysates. The test is classed as cell-based. As to the method: In the first set of experiments, three cancer cell lines (ACHN (renal cell adenocarcinoma, ATCC® #CRL-1611™), Du145 (prostate carcinoma, ATCC® #HTB-81™) and OvCAR 8 (ovarian adenocarcinoma, ATCC® #HTB-161™) cell lines; obtained from the National Cancer Institute's Developmental Therapeutics Program) were seeded at 35,000 cells per well in 96-well plates and grown overnight (maintenance culture medium was RPMI-1640 media supplemented with 10% fetal calf serum, 2 mM L-glutamine, and Pen-Strep; cells were grown in a humidified atmosphere at 5% CO2, 95% air at 37° C.). Cells were synchronized by 20-24 hour serum starvation. The cells were then pre-incubated with 4-fold serial dilutions, ranging from […] to 7.6 pM, of MM-121 for 30 minutes. […]
For ELISA analysis of cell lysates, capture antibodies against ErbB1 (R&D Systems AF231), ErbB2 (R&D Systems, MAB1129), ErbB3 (R&D Systems, MAB 3481) and AKT (Upstate, 05-591 MG) were incubated in 384 well black flat-bottom polystyrene high-binding plates (Corning, 3708) overnight at room temperature. […] All ELISAs were visualized with SuperSignal® ELISA Pico Chemiluminescent Substrate (Pierce, Cat. #37069) and luminescent signal was measured using a luminometer.
Inhibitor IC50 values were calculated by least-squares fitting the dose response data with a sigmoidal curve (GraphPad Prism®, GraphPad Software, Inc., La Jolla, Calif.).

Test [10] relates to EGFR wild-type NSCLC cell lines. The test can be described thus: Spheroid assay (CellTiter Glo live cell density) in EGFR wild-type NSCLC cell lines. Format: cell-based. How it is done: The cell lines bear no mutations within their EGFR genes and represent three distinct histological subtypes (see Table X below). Cells harboring Ras mutations are indicated.
Relative live cell densities were then determined using the CellTiter Glo® reagent (Promega).

Where [11] appears, read: in the presence of 5 nM heregulin.

Method for NCI-N87 tumors: 7.5×10^6 NCI-N87 cells were implanted subcutaneously in the flanks of female Nu/Nu mice. When tumor volumes reached on average 341 mm^3 (on day 24 after tumor implantation) mice were segregated into 4 groups of 10 mice. […] Tumors were measured twice a week with a digital caliper.

For the molecule `CS(=O)(=O)CCNCc1ccc(-c2ccc3ncnc(Nc4ccc(OCc5cccc(F)c5)c(Cl)c4)c3c2)o1` [lapatinib, reference compound], the “inhibition of cell proliferation” value in the test with BT474-M3 cells (basal conditions) was 50%. Moreover, in the test on BT474-M3 cells (setting [11]), the “inhibition of cell proliferation” value was determined as 23%. For the same molecule, the “inhibition of AKT phosphorylation” value in test [1] is on record as “inhibited phosphorylation of AKT”. Moreover, in [2] (end of study tumor lysates), the “activity in reducing pErbB3 levels with tumoral HRG expression” value is reported as “decreased”. Moreover, in [2], the “ratio of pERK and totERK levels” value was “decreased effectiveness”; the “ratio of pErbB3 to total ErbB3” value was “effectiveness was reduced in the presence of HRG”; the “ratio of phospho-Akt to total Akt” value is recorded as “decreased effectiveness”.
As to `CC/C(=C(\c1ccccc1)c1ccc(OCCN(C)C)cc1)c1ccccc1` [tamoxifen, reference compound], in the test with BT474-M3-GFP-HRG tumors, the “effect of tumoral HRG overexpression on efficacy (tumor volume)” value was “improved”.
On to `CC(=O)O[C@H]1C(=O)[C@@]2(C)[C@H]([C@H](OC(=O)c3ccccc3)[C@]3(O)C[C@H](OC(=O)[C@H](O)[C@@H](NC(=O)c4ccccc4)c4ccccc4)C(C)=C1C3(C)C)[C@]1(OC(C)=O)CO[C@@H]1C[C@@H]2O` [paclitaxel], for which, in the test with NCI-N87 tumors, the tumor growth result is given as “only tumor stasis at best”.
Regarding `N.N.[Cl][Pt][Cl]` [cisplatin], the “cell viability (percentage of media control), A2780cis versus A2780” value in the test with A2780cis cells is reported as “much greater viability”. The pAKT production result is “decrease in pAKT production” with pAKT in A2780 cells and “no effect on pAKT production” in the test on pAKT in A2780cis cells.
In the case of “MM-111: bispecific anti-ErbB3, anti-ErbB2 antibody, two scFvs in a Human Serum Albumin conjugate, SEQ ID NO:44”, the “inhibition of cell proliferation” value is 24% in the test on BT474-M3 cells (basal conditions), 33% in the test on BT474-M3 cells (setting [11]), “maintained similar inhibitory activity” in [4] and “maintained similar inhibitory activity” in test [5]. In addition, in test [3], the completely regressed tumors result is recorded as “no complete regressions were observed”. Further, the “inhibition of spheroid growth” value in test [6] was “significantly reduced spheroid growth”; in test [7] (trastuzumab-resistant cells, series dilution, six days) it was “significantly reduced spheroid growth”. Also, in test [7] (in the presence of 100 nM gefitinib), the “inhibition of spheroid growth in combination with gefitinib” value was “effective at inhibiting cell growth”. In test [7] (in the presence of 300 nM erlotinib), the “inhibition of spheroid growth in combination with erlotinib” value was “effective at inhibiting cell growth”. The “inhibitory activity in trastuzumab-resistant cells compared with wild-type cells” value in [7] (spheroids) is given as “slightly improved”. Also, the “effect of tumoral HRG overexpression on efficacy (tumor volume)” value with BT474-M3-GFP-HRG tumors is on record as “modestly improved”. Moreover, the “total ErbB3 expression” value in [8] and in [2] (end of study tumor lysates) was “increased total ErbB3 expression” throughout. The “activity in reducing pErbB3 levels with tumoral HRG expression” value in [2] (end of study tumor lysates) is on record as “increased effectiveness”. Besides, the “ratio of pERK and totERK levels” value in [2] is “effective at reducing pERK production in the presence of HRG”. Moreover, the “ratio of pErbB3 to total ErbB3” value in test [2] is reported as “decreased ErbB3 activity even in the presence of HRG”. In addition, the “ratio of phospho-Akt to total Akt” value in test [2] is given as “effective at reducing pAkt production in the presence of HRG”.

B1: MM-121: fully human anti-ErbB3 antibody, VH and VL sequences SEQ ID NOs: 1 and 2 (antibody, V domains shown)
VH: EVQLLESGGGLVQPGGSLRLSCAASGFTFSHYVMAWVRQAPGKGLEWVSSISSSGGWTLYADSVKGRFTISRDNSKNTLYLQMNSLRAEDTAVYYCTRGLKMATIFDYWGQGTLVTVSS
VL: QSALTQPASVSGSPGQSITISCTGTSSDVGSYNVVSWYQQHPGKAPKLIIYEVSQRPSGVSNRFSGSKSGNTASLTISGLQTEDEADYYCCSYAGSSIFVIFGGGTKVTVL
On to B1, for which, in [9] (MM-121 2 mM to 7.6 pM pre-incubated 30 minutes, 25 nM heregulin 10 minutes, versus HRG control), the “inhibition of HRG-induced ErbB3, AKT and ERK phosphorylation” value was “inhibits HRG-induced ErbB3, AKT and ERK phosphorylation”. Also, in [9] (in most cases), the “maximal inhibition of pErbB3, pAKT and pERK relative to unstimulated control” value is listed as “near or below basal signaling levels”. Also, in [10] (1 μM MM-121 added to erlotinib 0 to 10 μM, 10 nM HRG, all eight cell lines), the “effect on sensitivity of spheroids to erlotinib, dose range” value is recorded as “restore sensitivity of the spheroids to erlotinib”. Further, the “effect on sensitivity of the cells to erlotinib” value in test [10] (MM-121 1 μM with erlotinib 1 μM, HRG-stimulated cells, all five cell lines) is given as “greatly improve sensitivity of the cells to erlotinib”. For the same molecule, the pAKT production entry in the test with pAKT in A2780cis cells is recorded as “gradual decrease in pAKT production at all dose levels”.
